Results published in a melting point compilation (Tetko et al.; mined from patent text by program, amines drawn as free bases though some values may be those of a salt).

melting point [°C] | SMILES
123 to 124 | COc1ccccc1Oc1c(Cl)nc(SC)nc1NS(=O)(=O)c1ccc(C(C)(C)C)cc1
272 | CCOC(=O)C1=C(N)NC2=C(C(=O)CCC2)C1c1nccc2ccccc12 (configuration not stated)
84 to 85 | COc1cccc(C2CCC(=O)N2)c1 (configuration not stated)
138 to 140 | CCOC(=O)C1N=c2sccc2=CN1N (configuration not stated)
104 to 105 | N#CCCCCc1csc(NC(=N)N)n1
52.5 to 55.5 | O=[N+]([O-])c1cccc(OCCn2ccnc2)c1
163 to 166 | COc1ccc(C(=O)C(=O)c2cccc(-c3ccc(S(C)(=O)=O)cc3)c2-c2ccccc2)cc1Cl
127 to 130 | CC1CCN(S(=O)(=O)c2cc(C#N)ccc2Oc2cc(Cl)ccc2Cl)CC1
153 to 155 | O=c1oc2ccccc2n1-c1ccccc1[N+](=O)[O-]
55 to 57 | CCc1cc(Oc2ncc(C(F)(F)F)cc2Cl)n[nH]1
91 to 92 | O=[N+]([O-])c1c(Br)c(Br)cc2c1OC(F)(F)C(F)(F)O2
150 to 153 | CCCCOCCOc1ccc(-c2ccc3c(c2)C=C(C(=O)OC)CCN3c2ccc(S(=O)(=O)N(C)C)cc2)cc1
122 to 124 | CC(C)(C)OC(=O)N[C@H]1COc2ccccc2N(CC(=O)OCc2ccccc2)C1=O
80 | CC1(C)OC(=O)c2c(O)cc(OCc3ccccc3)cc2O1
190 to 192 | CSc1ccc(-n2cnc3ccc(-c4nnc(CC(F)(F)F)o4)cc32)cc1
217 to 218 | Cc1c2ccccc2nc2ccc3nc4ccccc4c(C)c3c12
105 to 106 | O=C(NC/C=C\COc1cc(CN2CCCCC2)ccn1)c1cc(-c2ccccc2)on1
156 to 158 | Cc1sc2c(c1C(=O)c1ccc([N+](=O)[O-])cc1)CCC2C(=O)O (configuration not stated)
136 to 137 | COc1ccc(CSc2nnc(-c3ccc4[nH]ncc4c3)o2)cc1C(F)(F)F
126 to 129 | CCCCCCCC(=O)Oc1ccc(-c2nc(-c3ccc(N(C)C)cc3)c(C)[nH]2)cc1OC
84 to 84.5 | COc1ccc(OCC(C)Oc2ccc(OC)cc2)cc1 (configuration not stated)
146 to 147 | CCC(=O)Oc1ccc(C(=O)Nc2ccc3cc(CN4CCCC4)cnc3c2C)cc1
226 to 232 | Cc1ccc(N2C(=O)C(O)=C(C(=O)c3ccc(-c4ccccc4)cc3)C2c2ccc(OC(F)(F)F)cc2)nn1 (configuration not stated)
107 to 108 | O=C(Cc1ccc(Cl)cc1)OC(c1ccccc1)c1ccccc1
185 to 186 | NS(=O)(=O)c1ccc(-n2nc(CCCNC(=O)Nc3ccc(C(F)(F)F)cc3)cc2-c2ccccc2)cc1

melting point [°C] | SMILES
195 to 198 | O=C(Nc1ccc(Oc2ccccc2)cc1)Nc1sccc1C(=O)O
164 | CC(=O)Nc1ccc([N+](=O)[O-])cc1OCC1CO1 (configuration not stated)
240 to 241 | CNC(=O)c1cnn(-c2ccc(Br)cc2)c1C#N
197 to 200 | C=CCN1C(=O)C(C)(C)c2ccc(-c3nc4ccccc4[nH]3)cc21
134 | O=C(NN=Cc1ccncc1)OCc1ccccc1
144 to 146 | COc1ccccc1-c1c(NC(=O)OCc2ccccc2)oc(=O)c2ccccc12
83 to 89 | CC(C)(C)OC(=O)C(CC(O)(C(F)(F)F)C(F)(F)F)NC(=O)OCc1ccccc1 (configuration not stated)
96 | Cc1nsc(N(C)C(=O)C2CCCCC2)n1
106 | NCC(O)COc1cccc2ccccc12 (configuration not stated)
121 to 123 | CCOc1c(-c2ccc(S(C)(=O)=O)cc2)cnn(-c2ccc(F)c(F)c2)c1=O
192 | Cn1c(C(F)(F)F)cc(=O)n(-c2cc(O)c(Br)cc2F)c1=O
316 to 319 | O=C(Nc1cccc(C(F)(F)F)c1)Nc1ccc(Oc2ncnc3cc[nH]c23)cc1Cl
102 to 103 | OC1CCc2cc(F)cc(F)c21 (configuration not stated)
75.5 to 79.5 | COc1ccc(C=O)cc1OC1CC2CCC1C2 (configuration not stated)
43 to 44 | [N-]=[N+]=C1CCCCCCCCCCC1=O
172 to 173 | CC(=N)Nc1nc(-c2ccccn2)nc2ccccc12
108 to 109 | O=C(NCCCc1ccncc1)N(CCC(F)(F)F)CCC12CC3CC(CC(C3)C1)C2
145 to 147 | CNC(=O)N1CC(Oc2cccc(C(F)(F)F)c2)C1
182 to 183 | CCCCOC(=O)[C@H](Cc1ccc(O)cc1)NC(=O)C1(NC(=O)[C@@H](S)C(C)C)CCCC1
127 to 129 | CC(=O)SC(CC(=O)c1ccc(Sc2ccc(C)cc2)cc1)C(=O)O (configuration not stated)
199 to 201 | COc1nc(C(F)(F)F)c(F)c(=O)n1-c1cc(C(=O)O)c(Cl)cc1F
180 to 185 | Cn1c(-c2ccc3c(c2)C(C)(C)OC(=O)N3)ccc1[N+](=O)[O-]
215 to 217 | O=C(O)C1CCCc2c(-c3ccc(Cl)cc3)noc2C1 (configuration not stated)
144 to 145 | CNCC1Cc2cc(OC)cc(-c3cc(OC)ccc3OC)c2O1 (configuration not stated)
261 to 262 | OCc1ccc2c(ccc3c4ccccc4ccc23)c1

melting point [°C] | SMILES
150 to 153 | Cc1ccc(-c2cn(C)cc(-c3cccc(C(F)(F)F)c3)c2=O)cc1C
107 to 108 | CC(C)(COc1ccc(CC2SC(=O)NC2=O)cc1)c1ccccc1 (configuration not stated)
191 to 193 | CC(=O)CN1CCN(C(=O)Cn2c(=O)sc3ncc(Cl)cc32)CC1
244 to 246 | NC1=C2C=NN=C2N(c2ccccc2)CN1c1ccccc1
134 to 137 | CC(=O)C(=Cc1ccc(O)c(O)c1)C(C)=O
271 to 276 | COc1cc2c(Nc3ccc(Sc4nccn4C)c(Cl)c3)c(C#N)cnc2cc1OCCCCl
149 to 151 | CC(C)CCOc1c(-c2ccc(S(N)(=O)=O)cc2)cnn(-c2ccc(F)c(F)c2)c1=O
212 to 216 | CNC(=O)c1ccc(C=CC(=O)NCC(=O)N(C)c2ccc(Cl)c(CBr)c2Cl)cc1
187 to 191 | O=C1Nc2ccc3ccccc3c2CCC1(Cl)Cl
113 to 115 | Cc1cc(=O)c2ccc(OCCCCl)cc2o1
72.2 to 73.9 | [N-]=[N+]=NCC(O)COc1ccc(-c2ccccc2)cc1 (configuration not stated)
171 to 173 | N#Cc1ccc(N2CCc3nc4cc(Cl)ccc4c(Cl)c3C2)nc1
150 to 155 | CCCCCCn1c(CN2CCC[C@H]2C(=O)O)nc2cc(-c3ccccc3-c3nn[nH]n3)ccc21
211 to 214 | CC(C)=NNc1cc2c(nn1)CCN(C(=O)c1ccc(Cl)cc1Cl)C2
204 to 207 | Cc1cc(O)n2nc(CN)nc2n1
131 to 132 | CS(=O)(=O)N1Cc2ccccc2C1
59 to 60 | CCOC(=O)c1ccc(C#CCc2ccc3c(c2)C(C)(C)CCC3(C)C)cc1
104 to 109 | COc1ccc(Cl)cc1C(=O)NCCc1ccc(Br)cc1
124 to 125 | CCC#CCOc1cc(/C=C/C(=O)Nc2ccccc2C(=O)O)ccc1OC
170 to 176 | CC(C)(C)c1cc2c(c(C(C)(C)C)c1)O[Si](C)(C)Oc1c-2cc(C(C)(C)C)cc1C(C)(C)C
> 250 | O=C(O)c1cccc2[nH]c(=O)c(-c3csc(-c4ccncc4)n3)cc12
163 to 165 | COc1ccc2ncc([N+](=O)[O-])c(Nc3ccccc3Cl)c2c1
94 to 95 | O=C(O)CCCCCCCn1ncc(-c2ccccc2)c1-c1ccccc1
71 | CC(=O)C(C)(C)C(Cl)C=Cc1ccccc1 (configuration not stated)
206 | N#CC1CCN(C(c2ccccc2)(c2ccccc2)c2ccccc2)CC1

melting point [°C] | SMILES
169 | CC(=O)c1cc(O)c(-c2ccccc2)cc1O
124 to 125 | CC(N)=CC(=O)C1=C(C)CCCC1(C)C
142 to 146 | C[C@H](NC(=O)C1(C)Oc2ccc([N+](=O)[O-])cc2NC1=O)C(=O)N[C@H](CCC(=O)O)C(N)=O (some centres not stated)
201 to 203 | Nc1nc(Cl)cc(NC(CO)C2C=CCC2)n1 (configuration not stated)
94 to 95 | CS(=O)(=O)Oc1ccccc1S(=O)(=O)Cl
195 to 196 | COc1ccc(-n2c(=O)n(O)c(=O)c3cc(F)c(N4CCN(C)CC4)cc32)cc1
241 | O=C(O)c1cn(C2CC2)c2c(F)c(N3CCC(n4cc(-c5ccccc5)nn4)C3)c(F)cc2c1=O (configuration not stated)
194 to 197 | Cn1ncc(C(=O)N2CCOCC2)c1C(=O)Nc1ccn2nc(N3CCCC3)nc2c1
143 | CCOc1c(N)c2c(c(OCC)c1OCC)C(C1c3cc(OC)c(OC)cc3CCN1C)OC2=O (configuration not stated)
203 to 205 | Cc1oc(=O)c(Nc2ccc(I)cc2)nc1Cl
180 | O=C(O)c1ccc(-c2cccc(O)c2)cc1
> 230 | N#Cc1nc2cc3c(cc2[nH]1)OC(F)(Cl)C(F)(Cl)O3 (configuration not stated)
48 | CCOc1ccc([N+](=O)[O-])c(F)c1
232 | CC(=O)c1ccc(C(C)(c2ccc(C(C)=O)cc2)c2ccc(C(C)=O)cc2)cc1
82 to 94 | CCCCNC(=N)NC(=O)NCCCC
136 to 140 | O=C(O)CCCNC(=O)c1cc(Cl)ccc1O
156 to 158 | COC(=O)N1c2cc(OC)c(OC)cc2C(=O)CC1C (configuration not stated)
119 to 121 | CCOc1ccc(F)cc1OCCN1C(=O)c2ccccc2C1=O
128 to 131 | [N-]=[N+]=NCc1n[nH]nc1-c1ccc(Cl)cc1C(=O)c1ccccc1
192 to 194 | CC=CC=NNC(=O)c1cnccn1
> 250 | CC(=O)Nc1nc2ccc(S(=O)(=O)n3c(CCCC(=O)O)cc4cc(C(F)(F)F)ccc43)cc2s1
133 to 134 | COC(=O)C(=O)c1ccc(OCCOc2ccc3ccccc3c2)c(Cl)c1

SMILES | melting point [°C]
COc1cccc(-c2[nH]cc(C3=C[C@@H]4C[C@@H](c5ccccc5)CN4CC3)c2-c2ccncc2)c1 | 141 to 144
CCC(=Cc1ccc(N(C)C)cc1Cl)[N+](=O)[O-] | 90 to 91
CCOP(=O)(OCC)Oc1cc(C(F)(F)F)nc(N(C)C)n1 | 22 to 24
NP(N)(=O)NC(=O)c1cccs1 | 272 to 280
CN1C(=O)C(CC(=O)Nc2ccc(Cl)cc2)N=C(c2ccccc2)c2ccccc21 (configuration not stated) | 238 to 240
